Experimental data published in US7589080B2, “β-cyclodextrin compositions, and use to prevent transmission of sexually transmitted diseases” (priority 2000, dated 2009).

Columns and labels:
CXCR4 = assay: Flow cytometry of CXCR4 surface expression; assay type: cell-based
Method: (§1) Flow cytometry was performed as previously described (Orentas and Hildreth, supra, 1993). Briefly, 2×10^5 2-OH-βCD treated or untreated cells in 100 μl PBS containing 5% normal goat serum (NGS) were added to 100 μl of MAb (1-5 μg) and incubated 30 min on ice. In comparative experiments we prefixed the cells with 2% paraformaldehyde in PBS immediately after 2-OH-βCD treatment. Cells were washed with PBS, resuspended in 100 μl of PBS, 5% NGS containing 2 Tg of FITC conjugated-goat anti-mouse IgG (FITC-GAM) and incubated 1 h on ice. Cells were then washed with PBS and fixed with 2% paraformaldehyde followed by analysis on an EPICS Profile II flow cytometer.
(§2) Cholesterol depletion also promoted CXCR4 down-modulation by MAb-induced internalization. A possible explanation for the inhibition of syncytium formation by cholesterol depletion as described above is that CD4, CRs, or both are lost from the cell surface, for example, by extrusion from the membrane in vesicles after loss of cholesterol, or they could be internalized. To explore these possibilities, βCD treated cells were examined for expression of HIV receptors by flow cytometry. […] In contrast, cell surface expression of CXCR4 was reduced by 50% or more in all of the cells after 2-OH-βCD treatment (Table 1).
(§3) In order to determine whether the loss of CXCR4 expression was due to MAb-induced internalization, cells were fixed with 2% paraformaldehyde in PBS immediately after 2-OH-βCD treatment and before staining with MAbs for flow cytometry.

HSV-2 strain G = assay: HSV mouse vaginal challenge model; assay type: in vivo, CD-1 mice; conditions: HSV-2 preincubated with 3%, intravaginal 1×10^4 TCID50; p=0.022
Method: The ability of 2-OH-βCD to reduce the infectiousness of HIV-1 (Examples 2 and 3) led to an investigation as to the general applicability of βCDs to prevent the transmission of other sexually transmitted enveloped viruses. A well characterized HSV mouse vaginal challenge model was used to examine the effect of 2-OH-βCD on HSV-2 infection (Sherwood et al., supra, 1996). Adult female CD-1 mice (Charles River Breeding Laboratories; Wilmington Mass.) were injected subcutaneously with Depo-Provera® progestin (2 mg) to increase their sensitivity, then one week later the mice were inoculated intravaginally with 1×10^4 TCID50 of cell-free HSV-2 strain G (10 ID50) using a WIRETROL capillary micropipette (Drummond Scientific; Broomall Pa.). Infection was confirmed by lavage culture on newborn foreskin fibroblast cells (Biowhitaker). Prior to inoculation, HSV-2 was preincubated either with 3% 2-OH-βCD or with buffer.

[1] = tested on: total cellular cholesterol; assay: Cellular cholesterol measurement (cholesterol oxidase fluorimetric assay); assay type: cell-based; conditions: 10 to 20 mM for 1 hr at 37° C, then washing
Method: Cellular cholesterol was measured with a sensitive cholesterol oxidase-based fluorimetric assay (Amplex Red Cholesterol Kit) from Molecular Probes (Eugene Oreg.). Cholesterol content of cells was normalized to total cellular protein.
The role of lipid rafts in the HIV-1 fusion process was examined by treating CD4+HIV-susceptible target cells with 2-OH-βCD to deplete membrane cholesterol and disperse lipid rafts.

CD4 = assay: Flow cytometry of CD4 surface expression; assay type: cell-based
Method: as §1, §2, §3

CCR5 = assay: Flow cytometry of CCR5 expression on primary T cells; assay type: cell-based; conditions: primary T cells after treatment (19% before)
Method: as §1, §2

[2] = tested on: HIV-1 primary strain 97.534, dual-tropic (X4R5); assay: Primary virus infection assay, isolate 97.534; assay type: cell-based; conditions: PHA blasts treated with 10 mM; p24 after 6 days
Method: Peripheral blood mononuclear cells (PBMCS) were isolated by Ficoll-Hypaque centrifugation from buffy coats obtained from the Johns Hopkins Hemapheresis Center. Cells were stimulated for 3 days with 3 Tg/ml PHA, washed with iRPMI, and treated with 10 mM 2-OH-βCD in cRPMI for 1 hr. Cells were then washed twice with iRPMI and resuspended in cRPMI (1×10^6/ml) supplemented with 50 U/ml IL-2 and containing primary HIV-1 strains at 20 ng/ml p24. Cells were incubated with virus for 24 hr at 37° C. before washing twice with iRPMI. Cells were then resuspended in cRPMI supplemented with 50 U/ml IL-2 and cultured for 6 days at 37° C. Supernatants were collected and p24 was quantitated by standard p24 ELISA.
βCD treatment blocks HIV-1 virus infection. HIV-1 can spread in cell cultures without necessarily exerting cytopathic effects. […] To test the effects of cholesterol depletion on HIV-1 infection of primary T cells by free virus, PHA blasts were treated with 10 mM 2-OH-βCD or medium alone, then were exposed to HIV-1 for 2 hr before washing to remove input virus. Viability and growth of the PHA blasts was not affected by treatment with the βCD under the conditions used. P24 release was measured after an addition 6 days in culture. Two primary strains of HIV-1, 97.099 and 97.534, M-tropic (R5) and dual-tropic (X4R5), respectively, were tested.

[3] = H9, 20 mM, fixed with 2% paraformaldehyde immediately after treatment
[4] = H9 cells, 20 mM, not fixed before staining
[5] = MT2 cells, 20 mM, not fixed before staining
[6] = PM1, 20 mM, fixed with 2% paraformaldehyde immediately after treatment
[7] = PM1 cells, 20 mM, not fixed before staining
[8] = SupT1, 20 mM, fixed with 2% paraformaldehyde immediately after treatment
[9] = SupT1 cells, 20 mM, not fixed before staining
[10] = cells fixed immediately after treatment, before MAb staining

## 2-hydroxypropyl-β-cyclodextrin [2-OH-βCD]
CXCR4; [3]
  CXCR4 (MCF): 55 MCF
CXCR4; [4]
  CXCR4 (MCF): 6.7 MCF
CXCR4; [5]
  CXCR4 (MCF): 16.7 MCF
CXCR4; [6]
  CXCR4 (MCF): 64 MCF
CXCR4; [7]
  CXCR4 (MCF): 3.1 MCF
CXCR4; [8]
  CXCR4 (MCF): 91 MCF
CXCR4; [9]
  CXCR4 (MCF): 15.0 MCF
CXCR4; all of the cells, not fixed before staining
  Reduction of cell surface expression of CXCR4: ≥ 50%
CXCR4; cells fixed and permeabilized after the MAb binding step
  Anti-CXCR4 MAb staining compared to control cells: no significant reduction
CXCR4; [10]
  CXCR4 expression on the cell surface: remained unchanged
HSV-2 strain G
  Mice that became infected: 5 of 10
[1]
  Depletion of total cellular cholesterol: greater than 70%
CD4; [3]
  CD4 (MCF): 50 MCF
CD4; [4]
  CD4 (MCF): 20.9 MCF
CD4; [5]
  CD4 (MCF): 62.2 MCF
CD4; PHA blasts or any of the cell lines tested
  CD4 expression after treatment: did not change
CD4; [6]
  CD4 (MCF): 129 MCF
CD4; [7]
  CD4 (MCF): 85.9 MCF
CD4; [8]
  CD4 (MCF): 213 MCF
CD4; [9]
  CD4 (MCF): 188.3 MCF
CD4; [10]
  CD4 expression on the cell surface: remained unchanged
CCR5
  CCR5 expression, cells staining positive: 8%
[2]
  Inhibition of infection of PHA blasts by isolate 97.534 (p24 release): more than 70%
